In patent publication US11406719B2, “Dichromic fluorescent compounds” (Washington University, priority 2008, dated 2022):
Like-named read-outs stand apart in the source and are kept apart here. Marks after values point to notes of the source that are not given here.

Assays:
[1] = In vivo dichromic fluorescence imaging of mouse ears; set-up: species or system nude mouse; conditions: 2 nmol intravenously
Source text: To assess the retention of dichromic fluorescence in vivo, 2 nmol of symmetrical ICG (compound 2) and nonsymmetrical cypate-S (compound 3) were each injected intravenously in a nude mouse. Mouse ears were imaged with a Li-Cor Odyssey system at two excitation (680 nm and 780 nm) and emission (700 and 800 nm) channels. […] Thus, the dual fluorescence contrast mechanism is tenable in vivo.

[2] = cited from earlier work
[3] = DMSO; excitation 773 nm; emission 820 nm; from Berezin et al., 2007; cited from earlier work
[4] = Fluorescence lifetime by time correlated single photon counting (TCSPC); assay type: physicochemical; conditions: for Lifetime at 700 nm (ns): excitation 650 nm, emission 700 nm
Experimental: Fluorescence lifetime (FLT) was measured using time correlated single photon counting (TCSPC) technique with excitation sources NanoLed® (HORIBA Jobin Yvon Inc.) at 700 nm and 773 nm and impulse repetition rate of 1 MHz at 90° to a R928P detector (Hamamatsu Photonics, Japan). The detector was set to either 750 nm (for Nanoled 700 nm) or for 820 nm (for Nanoled 773 nm) with a 20 nm bandpass. The electrical signal was amplified by TB-02 pulse amplifier (HORIBA Jobin Yvon Inc.) and the amplified signal was fed to the constant fraction discriminator CFD (Philips, Netherlands). The first detected photon represented the start signal by the time-to-amplitude converter (TAC) and the excitation pulse triggered the stop signal. The multi-channel analyzer (MCA) recorded repetitive start-stop signals from the TAC and generated a histogram of photons as a function of time-calibrated channels (6.878 ps/channel) until the peak signal reached 10,000 counts. The lifetime was recorded on a 50 ns scale. The instrument response function was obtained by using Rayleigh scatter of Ludox-40 (Sigma-Aldrich, St. Louis, Mo.) (0.03% in Milli-Q water) in a quartz cuvette at either 700 nm or 773 nm emission. DAS6 v6.1 decay analysis software (HORIBA Jobin Yvon Inc.) was used for lifetime calculations. The goodness of fit was judged by χ^2 values and Durbin-Watson parameters and visual observations of fitted line, residuals and autocorrelation function

[5] = Steady-state absorption and fluorescence properties (spectra, quantum yield, 700/800 nm emission); assay type: physicochemical; conditions: for fluorescence quantum yield: relative to ICG
Experimental: The polymethine dyes and their derivatives were dissolved in […] of DMSO as stock solutions. To prevent inner effect in the fluorescent measurements, aliquots […] were diluted with the solvent of interest until the absorbance at the excitation wavelength was 0.15. UV-Vis spectra were obtained on Beckman Coulter DU 640 UV-Vis spectrometer (Beckman Coulter, Inc., Fullerton, Calif.). Emission spectra were recorded on a Fluorolog-3 spectrofluorometer (HORIBA Jobin Yvon Inc., Edison, N.J.).
Fluorescent spectra were recorded by using 620 nm and 720 nm excitation wavelengths. Fluorescent quantum yield was measured at 720 nm with slits width of 5 nm for both excitation and emission. The fluorescence quantum yield of ICG in DMSO (Ψ=0.12) was used as a reference standard. All measurements were conducted at room temperature. Excitation scans were performed in the range of 500-720 nm with monitoring at 735 nm fluorescence intensity, and 600-815 nm with monitoring at 830 nm. Excitation scans were corrected by lamp intensity using the equation F=S/R.
The ratios of the 700 nm and 800 nm emission peaks were examined in different environments and simulated dilute conditions (e.g., binding to albumin). For this, the fluorescence behavior of compound 3 was determined in different solvents (i.e., methanol, water, and DMSO), pH levels (i.e., 2.5 and 10), and in the presence of albumin (which binds the dyes in its drug binding pocket). The spectral analysis was conducted as described above in Example 2. Spectra at pH 2.5 and 10.0 were obtained by titrating 20% DMSO/water solution with diluted aqueous HCl and NaOH.

caspase-3 [6] = target: T1, caspase-3 (Homo sapiens, UniProt P42574); set-up: purchased CalBiochem; conditions: read-out: KM of the standard; cited from earlier work
T1 sequence (P42574 29-175 limits assumed): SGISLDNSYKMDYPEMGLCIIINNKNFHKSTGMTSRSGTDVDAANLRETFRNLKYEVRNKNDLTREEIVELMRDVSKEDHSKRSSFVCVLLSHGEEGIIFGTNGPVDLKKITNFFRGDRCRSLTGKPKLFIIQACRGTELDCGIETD
T1 sequence (P42574 176-277 limits assumed): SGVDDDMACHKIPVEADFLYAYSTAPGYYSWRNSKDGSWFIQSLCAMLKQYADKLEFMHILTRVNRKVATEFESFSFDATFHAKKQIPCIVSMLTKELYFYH

A549 cells = experiment: Two-channel imaging of fluorescence enhancement of A549 cells; assay type: cell-based, human; conditions: 1 μM
Experimental: It was hypothesized that since cypate diserine could be phosphorylated in cells, it is possible that the initial phosphorylation of one serine (as indicated by an increase in the 700 nm channel) could be followed by phosphorylation of the second serine. […] To test this notion, A549 cells were incubated with of 1 μM of compound 6.

casein kinase II = experiment: Kinase-Glo Luminescent Kinase Assay; assay type: cell-based; conditions: A549 cells
Experimental: The following example was designed to further explore the use of cypate diserine (6) to monitor the activity of endogenous kinases. A549 cells (which express casein kinase II) were incubated with a standard casein kinase II peptide substrate or compound 6 (which is not specific for casein kinase II). Kinase activity was measured with the Kinase-Glo Luminescent Kinase Assay Platform (Promega Corp., Madison, Wis.) per the manufacturer's instructions. This assay measures free ATP in the reaction mixture. As phosphorylation increases, the levels of ATP decrease, and consequently, luminescence is inversely proportional to kinase activity.

caspase-3 [7] = target: T1, caspase-3; experiment: Enzyme kinetics of NIR caspase-3 probe; assay type: biochemical; set-up: purchased CalBiochem; conditions: non-linear fit; 37° C.
Experimental: To examine the kinetics, a caspase-3 substrate was prepared using the standard FRET method where the tetrapeptide Asp-Glu-Val-Asp (DEVD—SEQ ID NO:4) was flanked by two cypate dyes (cypate-DEVD (SEQ ID NO:4) probe). Enzyme assays were performed with a fluorometer by using commercially available recombinant caspase-3 (CalBiochem). An aliquot of the cypate-DEVD (SEQ ID NO:4) probe (substrate concentrations ranged from 70 nM to 100 μM) was dissolved in DMSO and added to a buffer comprising 10 mM PIPES, pH 7.4, 2 mM EDTA, 0.1% CHAPS, and 5 mM DTT. Five units of the enzyme were added, and the assay was performed at 37° C. A control experiment under the same conditions but with no enzyme was conducted at the same time. The apparent Km for the cypate-DEVD (SEQ ID NO:4) probe for caspase-3 was calculated with the Cheng-Prusoff equation: […], where [S] is the concentration of substrate and Ki is the published inhibitory constant of DEVD (SEQ ID NO:4)-CHO. To generate EC50 values, initial rates were determined from the linear portion of substrate hydrolysis and were plotted against log-inhibitor concentration (DEVD (SEQ ID NO:4)-CHO). The apparent kcat values were calculated using the equation kcat=V(Km+[S])/[Et][S], where [S] is the concentration of substrate, [E] is the concentration of enzyme, and Vis the initial rate of cleavage. […]

caspase-3 [8] = target: T1, caspase-3; experiment: In vivo imaging of caspase-3 activity in mouse ears; set-up: species or system nude mouse; conditions: 2 nmol intravenously; caspase-3-injected ear relative to saline-injected ear
Experimental: To assess the NIR optical imaging of caspase-3 activity, 2 nmol of the pre-quenched (FRET) cypate-DEVD (SEQ ID NO:4) probe was injected intravenously in a nude mouse, followed by intradermal injection of caspase-3 solution (right pinna) or saline (left pinna). This approach provides positive and negative controls in one set of experiments. Mouse ears were imaged with Li-Cor Odyssey single-channel (805 nm) NIR imaging system (Li-Cor Biosciences, Lincoln, Neb.). Images were captured before treatment, after injection of a probe and after intradermal injection of caspase-3 in the ear.

## CC1(C)C(/C=C/C=C/C=C/C=C2/N(CCCCS(=O)(=O)O)c3ccc4ccccc4c3C2(C)C)=[N+](CCCCS(=O)(=O)[O-])c2ccc3ccccc3c21 [Compound 2, indocyanine green, reference compound]
[1]
  visibility of blood vessels in the 700 and 800 nm channels: showed the blood vessels only at the 800 nm channel
[2]; in DMSO
  fluorescence quantum yield (reference standard): 0.12
[2]; in methanol
  fluorescence quantum yield (reference): 0.090
[3]
  Lifetime at 800 nm (ns): 0.97^c ns
[4]; DMSO
  Lifetime at 700 nm (ns): 1.50^d ns
[5]
  contribution of the 700 nm emission in the overall fluorescence spectra: 24%

## cypate-NH2 [Compound 4]
[4]; DMSO
  Lifetime at 700 nm (ns): 1.40 ns
[4]; DMSO, excitation 773 nm, emission 820 nm
  Lifetime at 800 nm (ns): 0.90 ns
[5]
  contribution of the 700 nm emission in the overall fluorescence spectra: 82%

## Ac-DEVD-pNA [Ac-DEVD (SEQ ID NO:4)-pNA]
caspase-3 [6]
  Km: 11 µM

## CC1(C)C(/C=C/C=C/C=C/C=C2\N(CCC(=O)NC(COP(=O)(O)O)C(=O)O)c3ccc4ccccc4c3C2(C)C)=[N+](CCC(=O)NC(CO)C(=O)O)c2ccc3ccccc3c21 (stereo not drawn) [Compound 7, monophosphoserine/serine cypate derivative]
[5]; methanol
  increase of the 700/800 nm ratio relative to symmetrical compound 6: 7 fold
  molar absorption coefficient: about 220,000 M^−1 cm^−1
  ratio of the 700/800 nm emission peaks: 2.5
  fluorescence quantum yield: 0.057

## CC1(C)C(/C=C/C=C/C=C/C=C2/N(CCC(=O)O)c3ccc4ccccc4c3C2(C)C)=[N+](CCC(=O)[O-])c2ccc3ccccc3c21 [Compound 1, cypate, reference compound]
[3]
  Lifetime at 800 nm (ns): 0.87^c ns
[4]; DMSO
  Lifetime at 700 nm (ns): Weak signal
[4]; in DMSO
  fluorescence lifetime at 800 nm: 0.86 ns
[5]
  contribution of the 700 nm emission in the overall fluorescence spectra: 18%

## CC1(C)C(/C=C/C=C/C=C/C=C2\N(CCC(=O)NC(CO)C(=O)O)c3ccc4ccccc4c3C2(C)C)=[N+](CCC(=O)NC(CO)C(=O)O)c2ccc3ccccc3c21 (stereo not drawn) [Compound 6, di-serine cypate]
A549 cells; 5 and 15 minutes
  fluorescence in the 700 nm and 800 nm emission channels: early fluorescence increase in the 700 nm emission channel
A549 cells; 30 and 45 minutes
  fluorescence in the 700 nm and 800 nm emission channels: fluorescence enhancement in both channels
[5]; methanol
  molar absorption coefficient: about 220,000 M^−1 cm^−1
  ratio of the 700/800 nm emission peaks: 0.36
  fluorescence quantum yield: 0.059
Casein kinase II
  luminescence (inversely proportional to kinase activity): concentration-dependent decreases in luminescence

## cypate-DEVD (SEQ ID NO:4) probe: caspase-3 FRET substrate: tetrapeptide Asp-Glu-Val-Asp flanked by two cypate dyes
caspase-3 [7]
  Km: 15 ± 3 µM
  kcat: 1.02 ± 0.06 s⁻¹
caspase-3 [8]
  magnitude and area of increase of fluorescence intensity (805 nm): significantly greater in the caspase-3-injected ear
